Experimental data from patent publication US4125607A, “Daunosaminyl anthracyclinones and their use” (Societa' Farmaceutici Italia S.p.A., priority 1975, dated 1978).
≈ marks a conversion by molar mass, not a printed value. Like-named read-outs stand apart in the source and are kept apart here.

What was measured:
L1210 leukemia = test: Activity on L1210 leukemia in BDF1 mice (Table 4); assay type: in vivo
Experimental: |Activity on L1210 leukemia |BDF1 mice were injected ip with 10^5 ascites |cells on Day 0 and treated ip on Day 1.

Sarcoma 180 ascites = test: Antitumor activity in mice bearing Sarcoma 180 ascites, single ip treatment on day 1; assay type: in vivo; conditions: for LTS (long term survivors) / T/C % (survival time as percentage of controls) / TOX (toxic deaths): single ip on day 1
Description: Antitumor activity in mice bearing Sarcoma 180 ascites;
single intraperitoneal treatment on day 1. The results
are expressed as the time of survival of treated animals
as a percentage of the controls (T/C %), the number of
long term survivors (LTS) and toxic deaths (TOX).

Gross leukemia = test: Activity on Gross leukemia in C3H/Hc mice (Table 3); assay type: in vivo
Description: ^3 C3H/Hc mice received 2×10^6 leukemic cells iv on Day 0 -
Treatment iv on Days 1, 2, 3.

L 1210 leukemia = test: Activity on L 1210 leukemia in BDF1 mice (Table 3); assay type: in vivo
Description: ^1 BDF1 mice received 10^5 ascites cells ip on Day 0 - Treatment

P 388 leukemia = test: Activity on P 388 leukemia in BDF1 mice (Table 3); assay type: in vivo
Description: ^2 BDF1 mice received 10^6 ascites cells ip on Day 0 - Treatment

HeLa cells = test: Inhibition of colony forming ability of cultured HeLa cells in vitro; assay type: cell-based; conditions: for IC50: Homo sapiens, read-out: ID50 (50% inhibiting dose)
Description: Biological activity on cultured HeLa cells. Data
are expressed as 50% inhibiting dose (ng/ml) at
different times of exposure.

## Cc1cc2c(cc1C)C(=O)c1c(O)c3c(c(O)c1C2=O)CC(O)(C(=O)CO)CC3OC1CC(N)C(O)C(C)O1 (stereo not shown) [2,3-Dimethyl-4-demethoxy-adriamycin, 4-demethoxy-2,3-dimethyladriamycin]
L1210 leukemia; L1210, 1.9 mg/kg ip on Day 1
  T/C %: 152%
L1210 leukemia; L1210, 2.9 mg/kg ip on Day 1
  T/C %: 152%
L1210 leukemia; L1210, 4.4 mg/kg ip on Day 1
  LTS: 1/10
  T/C %: 170%

## CC1OC(OC2CC(O)(C(=O)CO)Cc3c(O)c4c(c(O)c32)C(=O)c2ccccc2C4=O)CC(N)C1O (stereo not shown) [4-demethoxyadriamycin]
Sarcoma 180 ascites; 0.25 mg/kg
  LTS (long term survivors): 7/10
  T/C % (survival time as percentage of controls): above 583%
Sarcoma 180 ascites; 0.5 mg/kg
  LTS (long term survivors): 6/10
  T/C % (survival time as percentage of controls): above 583%
Sarcoma 180 ascites; 1.0 mg/kg
  T/C % (survival time as percentage of controls): 218%
  TOX (toxic deaths): 6/9
Sarcoma 180 ascites; Sarcoma 180 ascites, from Table 2
  Activity relative to adriamycin: at least ten times more active than adriamycin
Gross leukemia; 0.35 mg/kg iv on Days 1, 2, 3
  T/C %: 228%
  Tox: 1/10
Gross leukemia; 0.45 mg/kg iv on Days 1, 2, 3
  T/C %: 214%
  Tox: 1/10
Gross leukemia; 0.6 mg/kg iv on Days 1, 2, 3
  T/C %: 157%
  Tox: 8/10
L 1210 leukemia; L 1210, 0.25 mg/kg ip on Day 1
  T/C %: 155%
L 1210 leukemia; L 1210, 0.5 mg/kg ip on Day 1
  T/C %: 166%
L 1210 leukemia; L 1210, 1 mg/kg ip on Day 1
  T/C %: 133%
  Tox: 10/10
P 388 leukemia; P 388, 0.25 mg/kg ip on Day 1
  T/C %: 168%
P 388 leukemia; P 388, 0.5 mg/kg ip on Day 1
  T/C %: 195%
P 388 leukemia; P 388, 1 mg/kg ip on Day 1
  T/C %: 209%
  Tox: 2/10
HeLa cells; HeLa cells in vitro, from Table 1
  Activity relative to adriamycin (inhibition of colony forming ability): about one hundred times more active than adriamycin
HeLa cells; HeLa cells, 2 hrs. exposure
  IC50: 1.5 ng/mL (≈ 0.00292 µM)
HeLa cells; HeLa cells, 8 hrs. exposure
  IC50: 0.34 ng/mL (≈ 0.000662 µM)
HeLa cells; HeLa cells, 24 hrs. exposure
  IC50: 0.14 ng/mL (≈ 0.000273 µM)

## COc1cccc2c1C(=O)c1c(O)c3c(c(O)c1C2=O)C[C@@](O)(C(=O)CO)C[C@@H]3O[C@H]1C[C@H](N)[C@H](O)[C@H](C)O1 [Adriamycin]
Sarcoma 180 ascites; 2.5 mg/kg
  LTS (long term survivors): 7/10
  T/C % (survival time as percentage of controls): above 583%
Sarcoma 180 ascites; 5.0 mg/kg
  LTS (long term survivors): 2/10
  T/C % (survival time as percentage of controls): 211%
  TOX (toxic deaths): 3/9
Sarcoma 180 ascites; 10.0 mg/kg
  T/C % (survival time as percentage of controls): 163%
  TOX (toxic deaths): 4/10
Gross leukemia; 3.5 mg/kg iv on Days 1, 2, 3
  T/C %: 164%
Gross leukemia; 4.4 mg/kg iv on Days 1, 2, 3
  T/C %: 186%
Gross leukemia; 6.0 mg/kg iv on Days 1, 2, 3
  T/C %: 214%
  Tox: 3/10
L 1210 leukemia; L 1210, 2.5 mg/kg ip on Day 1
  T/C %: 155%
L 1210 leukemia; L 1210, 5 mg/kg ip on Day 1
  T/C %: 166%
  Tox: 1/10
L 1210 leukemia; L1210, 10 mg/kg ip on Day 1
  T/C %: 155%
  Tox: 4/10
L1210 leukemia; L1210, 2.9 mg/kg ip on Day 1
  T/C %: 141%
L1210 leukemia; L1210, 4.4 mg/kg ip on Day 1
  LTS: 1/10
  T/C %: 152%
L1210 leukemia; L1210, 6.6 mg/kg ip on Day 1
  T/C %: 158%
L1210 leukemia; L1210, 10 mg/kg ip on Day 1
  LTS: 1/10
  T/C %: 164%
P 388 leukemia; P 388, 2.5 mg/kg ip on Day 1
  T/C %: 173%
P 388 leukemia; P 388, 5 mg/kg ip on Day 1
  T/C %: 218%
P 388 leukemia; P 388, 10 mg/kg ip on Day 1
  T/C %: 230%
  Tox: 1/10
HeLa cells; HeLa, 2 h
  IC50: 125 ng/mL (≈ 0.23 µM)
HeLa cells; HeLa, 8 h
  IC50: 28 ng/mL (≈ 0.0515 µM)
HeLa cells; HeLa, 24 h
  IC50: 12.5 ng/mL (≈ 0.023 µM)
